The subject of one test is JNK phosphorylation. Nature of the test: JNK Activation Assay (western blot), Panc-1. Format: cell-based, human. The following applies: at 10 μM, Panc-1 pancreatic cancer cell line; starred symbols = activation. In short, it runs like this: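 KRas G12C Panc-1 cells treated 6 h at 37 °C with compound at 10 μM (0.3% DMSO), or serial dilutions for IC50. In Method 1 cells were serum-starved overnight (0.5% FBS) then stimulated with 1.5 ng/ml EGF for 15 min; Method 2 used 10% FBS without stimulation. Phospho-JNK (Thr183/Tyr185) measured by western blot.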

In another test the target is T1, cdc42 (Homo sapiens, UniProt P60953).
T1 construct: made in house
In words: Cdc42 GTP Binding Domain Inhibition Assay. Particulars: read-out: Cdc42: % inh. Here is the method: (§1) Protocol for Cdc42 and Rheb GTP Binding Domain Inhibition Assay
(§2) The following method was developed as specific assay for cdc42 and Rheb proteins.
(§3) • 25 mM Tris-HCl, pH 7.4 • 27 mM KCl • 137 mM NaCl • 1 mM MgCl2 • 1 mM DTT Buffer-II: • 50 mM Tris-HCl, pH 7.0 • 1 mM MgCl2 • 1 mM DTT
(§4) The small GTPases proteins cdc42 and Rheb were expressed as His-tagged proteins. For the assay, the cdc42 and Rheb purified small GTPases proteins were diluted in Buffer-I or Buffer-II to a final concentration of 10-30 μg/mL. 200 μL of each diluted protein was added to a nickel-coated 96-well plate and incubated overnight at […]. Then the protein solution was discarded and 200 μL of Buffer-I or Buffer-II was added to each well in the presence of 1% DMSO. Compounds to be tested were added to the protein-coated wells at final concentration of 20 μM, and incubated for 3 hours at room temperature with and without 10-30 μg/mL of Sos added to the final hour of the incubation. When performing IC50 measurements a serial dilution of all tested concentrations was added. Then Cy3-GTP or Cy5-GTP was added to each well to a final concentration of 100 nM. The labeled GTP was incubated for 45 minutes at room temperature. Following GTP incubation, wells were washed 3× in Buffer-I or Buffer-II and 200 μL of Buffer-I or Buffer-II was added to each well. Following washes, the amount of bound labeled-GTP was measured using a SpectraMax M3 (Molecular Devices).

The target in the next test is T2, Rheb (Homo sapiens, UniProt Q15382).
T2 construct: made in house
Nature of the test: Rheb GTP Binding Domain Inhibition Assay. The following applies: read-out: Rheb: % inh. Here is the method: as §1, §2, §3, §4

T1 sequence (P60953 whole entry): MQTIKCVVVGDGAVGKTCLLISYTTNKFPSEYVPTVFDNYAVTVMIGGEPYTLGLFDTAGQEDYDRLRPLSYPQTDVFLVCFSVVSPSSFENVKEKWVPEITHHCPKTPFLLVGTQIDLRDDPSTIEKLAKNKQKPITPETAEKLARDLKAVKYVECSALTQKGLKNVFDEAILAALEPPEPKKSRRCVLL
T2 sequence (Q15382 whole entry): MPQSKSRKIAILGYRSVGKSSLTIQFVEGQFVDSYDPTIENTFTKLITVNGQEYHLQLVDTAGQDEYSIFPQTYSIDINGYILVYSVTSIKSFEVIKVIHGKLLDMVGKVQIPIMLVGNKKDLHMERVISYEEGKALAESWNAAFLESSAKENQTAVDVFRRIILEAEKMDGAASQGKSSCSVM

In the case of `COc1cccc(-c2cn3nc(-c4nccn4C)nc(N[C@H]4C[C@H](OC)C4)c3c2-c2ccccn2)c1F` [Compound 45, 6-(2-Fluoro-3-methoxyphenyl)-N-((1r,3r)-3-methoxycyclobutyl)-2-(1-methyl-1H-imidazol-2-yl)-5-(pyridin-2-yl)pyrrolo[2,1-f][1,2,4]triazin-4-amine], the “% inh of JNK in Panc-1” value in the test with JNK phosphorylation was “H* (H* ≥ 100% activation)”. The values for the inhibition at 20 µM on cdc42 and at Rheb were 26 to 49% and 50 to 75%, respectively.

Consider `COc1cnc(Nc2nc(-c3nccn3C)nn3cc(-c4ccn(C(C)C)n4)c(C)c23)nc1` [Compound 56, 6-(1-Isopropyl-1H-pyrazol-3-yl)-N-(5-methoxypyrimidin-2-yl)-5-methyl-2-(1-methyl-1H-imidazol-2-yl)pyrrolo[2,1-f][1,2,4]triazin-4-amine], for which the “% inh of JNK in Panc-1” value in the test on JNK phosphorylation is “H* (H* ≥ 100% activation)”. In addition, the inhibition at 20 µM on cdc42 is 26 to 49%; on Rheb it was 50 to 75%.

In the case of `Cc1c(-c2ccn(C(C)C)n2)cn2nc(-c3nccn3C)nc(Nc3ncco3)c12` [Compound 60, N-(6-(1-Isopropyl-1H-pyrazol-3-yl)-5-methyl-2-(1-methyl-1H-imidazol-2-yl)pyrrolo[2,1-f][1,2,4]triazin-4-yl)oxazol-2-amine], the “% inh of JNK in Panc-1” value in the test on JNK phosphorylation is recorded as “H* (H* ≥ 100% activation)”. Also, the inhibition at 20 µM was 1 to 25% at cdc42 and 26 to 49% at Rheb.

`Cc1c(-c2ccn(C(C)C)n2)cn2nc(-c3nccn3C)nc(Nc3nc(C4CC4)no3)c12` [Compound 70, 3-Cyclopropyl-N-(6-(1-isopropyl-1H-pyrazol-3-yl)-5-methyl-2-(1-methyl-1H-imidazol-2-yl)pyrrolo[2,1-f][1,2,4]triazin-4-yl)-1,2,4-oxadiazol-5-amine]: in the test with JNK phosphorylation, the “% inh of JNK in Panc-1” value is recorded as “H* (H* ≥ 100% activation)”. Further, the inhibition at 20 µM on cdc42 and on Rheb was 1 to 25% throughout.

Turning to `COc1cccc(-c2cn3nc(-c4nccn4C)nc(N[C@@H]4CC[C@@H](OC)C4)c3c2-c2ccccc2)c1F` (racemic) [Compound 43, rac 6-(2-Fluoro-3-methoxyphenyl)-N-((1R,3R)-3-methoxycyclopentyl)-2-(1-methyl-1H-imidazol-2-yl)-5-phenylpyrrolo[2,1-f][1,2,4]triazin-4-amine], the “% inh of JNK in Panc-1” value with JNK phosphorylation is given as “H* (H* ≥ 100% activation)”. In addition, the inhibition at 20 µM on cdc42 lay in the range of 1 to 25%; at Rheb it was 26 to 49%.

In the case of `COc1ccc(-c2cn3nc(-c4nccn4C)nc(Nc4cc(OC)ncn4)c3c2C)cn1` [Compound 66, 6-(6-Methoxypyridin-3-yl)-N-(6-methoxypyrimidin-4-yl)-5-methyl-2-(1-methyl-1H-imidazol-2-yl)pyrrolo[2,1-f][1,2,4]triazin-4-amine], the “% inh of JNK in Panc-1” value in the test with JNK phosphorylation is “H* (H* ≥ 100% activation)”. Further, the inhibition at 20 µM on cdc42 was in the range of 76 to 100%; on Rheb, 50 to 75%.

As to `COc1cc(Nc2nc(-c3nccn3C)nn3cc(-c4ccn(C(C)C)n4)c(C)c23)n[nH]1` [Compound 51, 6-(1-Isopropyl-1H-pyrazol-3-yl)-N-(5-methoxy-1H-pyrazol-3-yl)-5-methyl-2-(1-methyl-1H-imidazol-2-yl)pyrrolo[2,1-f][1,2,4]triazin-4-amine], the “% inh of JNK in Panc-1” value in the test with JNK phosphorylation is listed as “H* (H* ≥ 100% activation)”. Further, the inhibition at 20 µM at cdc42 and at Rheb was 50 to 75% throughout.

In the case of `Cc1c(-c2ccn(C(C)C)n2)cn2nc(-c3nccn3C)nc(Nc3ccn(C(C)C)n3)c12` [Compound 72, N,6-bis(1-Isopropyl-1H-pyrazol-3-yl)-5-methyl-2-(1-methyl-1H-imidazol-2-yl)pyrrolo[2,1-f][1,2,4]triazin-4-amine], in the test with JNK phosphorylation, the “% inh of JNK in Panc-1” value is “H* (H* ≥ 100% activation)”. The inhibition at 20 µM at cdc42 and at Rheb was 50 to 75% each time.

For `CCn1ccc(-c2cn3nc(-c4nccn4C)nc(Nc4cc(OC)ncn4)c3c2C)n1` [Compound 64, 6-(1-Ethyl-1H-pyrazol-3-yl)-N-(6-methoxypyrimidin-4-yl)-5-methyl-2-(1-methyl-1H-imidazol-2-yl)pyrrolo[2,1-f][1,2,4]triazin-4-amine], the “% inh of JNK in Panc-1” value with JNK phosphorylation is “H* (H* ≥ 100% activation)”. Moreover, the values for the inhibition at 20 µM on cdc42 and at Rheb were 76 to 100% and 50 to 75%, respectively.

In the case of `Cc1c(-c2ccn(C(C)C)n2)cn2nc(-c3nccn3C)nc(Nc3ccncc3)c12` [Compound 52, 6-(1-Isopropyl-1H-pyrazol-3-yl)-5-methyl-2-(1-methyl-1H-imidazol-2-yl)-N-(pyridin-4-yl)pyrrolo[2,1-f][1,2,4]triazin-4-amine], the “% inh of JNK in Panc-1” value with JNK phosphorylation is given as 0 (0 = 0% inhibition). In addition, the inhibition at 20 µM is 1 to 25% on cdc42 and 0% on Rheb.

On to `COc1cc(Nc2nc(-c3nccn3C)nn3cc(-c4cccc(OC)n4)c(C)c23)ncn1` [Compound 65, 6-(6-Methoxypyridin-2-yl)-N-(6-methoxypyrimidin-4-yl)-5-methyl-2-(1-methyl-1H-imidazol-2-yl)pyrrolo[2,1-f][1,2,4]triazin-4-amine], for which the “% inh of JNK in Panc-1” value in the test with JNK phosphorylation is given as “H* (H* ≥ 100% activation)”. The values for the inhibition at 20 µM at cdc42 and on Rheb were 26 to 49% and 0%, respectively.

Take `COc1ccc(Nc2nc(-c3nccn3C)nn3cc(-c4ccn(C(C)C)n4)c(C)c23)cn1` [Compound 71, 6-(1-Isopropyl-1H-pyrazol-3-yl)-N-(6-methoxypyridin-3-yl)-5-methyl-2-(1-methyl-1H-imidazol-2-yl)pyrrolo[2,1-f][1,2,4]triazin-4-amine]: the “% inh of JNK in Panc-1” value with JNK phosphorylation is “H* (H* ≥ 100% activation)”. The inhibition at 20 µM at cdc42 and at Rheb was 1 to 25% throughout.

Take `COc1cccc(-c2cn3nc(-c4nccn4C)nc(N[C@H]4C[C@H](OC)C4)c3c2-c2ccccc2)c1F` [Compound 42, 6-(2-Fluoro-3-methoxyphenyl)-N-((1r,3r)-3-methoxycyclobutyl)-2-(1-methyl-1H-imidazol-2-yl)-5-phenylpyrrolo[2,1-f][1,2,4]triazin-4-amine]: the “% inh of JNK in Panc-1” value in the test with JNK phosphorylation is “H* (H* ≥ 100% activation)”. The inhibition at 20 µM on cdc42 and at Rheb was 1 to 25% each time.

Consider `Cc1c(-c2ccn(C(C)C)n2)cn2nc(-c3nccn3C)nc(Nc3nnc(C4CC4)o3)c12` [Compound 67, 5-Cyclopropyl-N-(6-(1-isopropyl-1H-pyrazol-3-yl)-5-methyl-2-(1-methyl-1H-imidazol-2-yl)pyrrolo[2,1-f][1,2,4]triazin-4-yl)-1,3,4-oxadiazol-2-amine], for which, in the test with JNK phosphorylation, the “% inh of JNK in Panc-1” value was “H* (H* ≥ 100% activation)”. Moreover, the results for the inhibition at 20 µM on cdc42 and at Rheb were 26 to 49% and 50 to 75%, respectively.

For the molecule `COc1cccc(-c2cn3nc(-c4nccn4C)nc(N[C@H]4C[C@H](OC)C4)c3c2-c2ccccc2)c1Cl` [Compound 32, 6-(2-Chloro-3-methoxyphenyl)-N-((1r,3r)-3-methoxycyclobutyl)-2-(1-methyl-1H-imidazol-2-yl)-5-phenylpyrrolo[2,1-f][1,2,4]triazin-4-amine], the “% inh of JNK in Panc-1” value in the test with JNK phosphorylation is reported as “H (H = 100% inhibition)”. The values for the inhibition at 20 µM at cdc42 and on Rheb were 1 to 25% and 26 to 49%, respectively.

`COc1cccc(-c2cn3nc(-c4nccn4C)nc(N[C@H]4C[C@H](OC)C4)c3c2-c2ccn(C)n2)c1F` [Compound 47, 6-(2-Fluoro-3-methoxyphenyl)-N-((1r,3r)-3-methoxycyclobutyl)-2-(1-methyl-1H-imidazol-2-yl)-5-(1-methyl-1H-pyrazol-3-yl)pyrrolo[2,1-f][1,2,4]triazin-4-amine]: the “% inh of JNK in Panc-1” value with JNK phosphorylation is “H* (H* ≥ 100% activation)”. Besides, the inhibition at 20 µM on cdc42 and at Rheb was 1 to 25% each time.

As to `COc1cccc(-c2cn3nc(-c4nccn4C)nc(N[C@@H]4CC[C@@H](OC)C4)c3c2-c2ccccn2)c1F` (racemic) [Compound 46, rac 6-(2-Fluoro-3-methoxyphenyl)-N-((1R,3R)-3-methoxycyclopentyl)-2-(1-methyl-1H-imidazol-2-yl)-5-(pyridin-2-yl)pyrrolo[2,1-f][1,2,4]triazin-4-amine], the “% inh of JNK in Panc-1” value with JNK phosphorylation is recorded as “H* (H* ≥ 100% activation)”. Moreover, the inhibition at 20 µM at cdc42 and on Rheb was 50 to 75% each time.

Consider `Cc1c(-c2ccn(C(C)C)n2)cn2nc(-c3nccn3C)nc(Nc3ccn(C)n3)c12` [Compound 61, 6-(1-Isopropyl-1H-pyrazol-3-yl)-5-methyl-2-(1-methyl-1H-imidazol-2-yl)-N-(1-methyl-1H-pyrazol-3-yl)pyrrolo[2,1-f][1,2,4]triazin-4-amine], for which, in the test on JNK phosphorylation, the “% inh of JNK in Panc-1” value is “H* (H* ≥ 100% activation)”. Also, the inhibition at 20 µM on cdc42 and on Rheb was 76 to 100% throughout.

These data come from patent US12459951B2, “Compounds that interact with RAS superfamily proteins for treatment of cancers, inflammatory diseases, rasopathies, and fibrotic disease” (SHY Therapeutics, LLC, priority 2022, dated 2025).
